Assays:
[1] = tested on: Human breast cancer cell line T47D; test: Potentiation of MMS induced apoptosis, cell based caspase-3 activity assay; conditions: Homo sapiens, T47D, 24 h, read-out: Compounds potentiate the apoptosis inducing activity of MMS (EC50);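 further: Caspase-3 activity in cell lysates measured by fluorescence (RFU), EC50 fitted from sigmoidal curve of signal versus log compound concentration in presence of MMS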
Procedure: Human breast cancer cell line T47D (Nanjing KeyGEN Biotech. CO., LTD.) was used to determine the potentiation effect of PARP-1 inhibitors on the apoptosis inducing activity of DNA damaging anticancer drugs such as MMS. Intracellular caspase-3 activity was used to measure cell apoptosis. Briefly, T47D cells were grown in DMEM/F12 cell culture medium (Hyclone) supplemented with 0.2 U/ml insulin (Genview) and 10% FBS (Hyclone). A day before experiment, 20000 of T47D cells were seeded to each well of a 96-well cell culture plate and maintained at 37° C. and 5% CO2 in a cell culture incubator overnight. On the day of experiment, cell culture medium was removed. […] The serial dilutions of the compounds to be tested and the reference compounds were made in a 1:3 and 1:10 fashion in DMSO. The 10-fold compound solutions were made by mixing 10 μl DMSO serial dilution solutions with 90 μl fresh growth medium. Twenty four hours later, the cells in the 96-well plates were centrifuged at 1000 g for 5 min and the supernatants were removed. 50 μl lysis buffer (10 mM Tris, pH 7.5, 0.1M NaCl, 1 mM EDTA, 0.01% Triton X-100) was added to each well and the plates were shaked horizontally for 30 min at 4° C. After centrifugation at 1000 g at 4° C. for 10 min, 20 μl of supernatant was transferred from each well to a corresponding well in a 384-well black plate. […] The plates were shaked to uniformly mix the wells and incubated at 37° C. for 3 h. […] The caspase-3 activity induced by the compounds was expressed as a relative fluorescence unit (RFU). The obtained fluorescence readings were analyzed using a commercial graphic software (GraphPad Prism 5) and plotted against the Log value of the compound concentrations. The EC50 values were obtained by fitting the data points with the equation of Y (fluorescence reading)=minimal fluorescence reading+(maximal fluorescence reading−minimal fluorescence reading)/(1+10̂(LogEC50−LogC)), where C is the concentration of the testing compound. The EC50 values were obtained by fitting the data points with S-shaped dose response curve equation (GraphPad Software, Inc).

[2] = tested on: SW620 human colorectal cancer cells; test: Potentiation of the growth inhibiting activity of MMS, MTT based cell viability assay; conditions: Homo sapiens, SW-620, 120 h, read-out: Compounds potentiate the growth inhibiting activity of MMS (IC50)

Row | EC50 [1] [nM] | IC50 [2] [nM] | Structure (SMILES)
1 | > 1000 | 120 | O=C(c1cccc(Cn2c3c(c(=O)[nH]c2=O)CCCC3)c1)N1CCN(C(=O)C2CC2)CC1 [Example 6, 1-(3-(4-(Cyclopropylcarbonyl)piperazine-1-carbonyl)benzyl)-5,6,7,8-tetrahydroquinazoline-2,4(1H,3H)-dione]
2 | 62 | 21 | O=C(c1cccc(Cn2c3c(c(=O)[nH]c2=O)CCCC3)c1)N1CCN(C(=O)c2cccs2)CC1 [Example 7, 1-(3-(4-(Thiophene-2-carbonyl)piperazine-1-carbonyl)benzyl)-5,6,7,8-tetrahydroquinazoline-2,4(1H,3H)-dione]
3 | 72 | 31 | O=C(c1ccsc1)N1CCN(C(=O)c2cccc(Cn3c4c(c(=O)[nH]c3=O)CCCC4)c2)CC1 [Example 15, 1-(3-(4-(Thiophene-3-carbonyl)piperazine-1-carbonyl)benzyl)-5,6,7,8-tetrahydroquinazoline-2,4(1H,3H)-dione]
4 | 295 | 31 | CCN1CCN(C(=O)c2cc(Cn3c4c(c(=O)[nH]c3=O)CCCC4)ccc2F)CC1 [Example 31, 1-(4-Fluoro-3-(4-ethylpiperazine-1-carbonyl)benzyl)-5,6,7,8-tetrahydroquinazoline-2,4(1H,3H)-dione]

More lines, now with the values behind:

Row | Structure (SMILES) | EC50 [1] [nM] | IC50 [2] [nM]
5 | O=C(c1cccc(Cn2c3c(c(=O)[nH]c2=O)CCCC3)c1)N1CCN(c2nccs2)CC1 [Example 8, 1-(3-(4-(Thiazol-2-yl)piperazine-1-carbonyl)benzyl)-5,6,7,8-tetrahydroquinazoline-2,4(1H,3H)-dione] | 20 | 11
6 | O=C(c1ccccc1)N1CCN(C(=O)c2cccc(Cn3c4c(c(=O)[nH]c3=O)CCCC4)c2)CC1 [Example 10, 1-(3-(4-Benzoylpiperazine-1-carbonyl)benzyl)-5,6,7,8-tetrahydroquinazoline-2,4(1H,3H)-dione] | 325 | 36
7 | O=C(c1cccc(Cn2c3c(c(=O)[nH]c2=O)CCCC3)c1)N1CCN(C(=O)C2CCCCC2)CC1 [Example 12, 1-(3-(4-(Cyclohexylcarbonyl)piperazine-1-carbonyl)benzyl)-5,6,7,8-tetrahydroquinazoline-2,4(1H,3H)-dione] | 62 | 9.7
8 | O=C(c1cccc(Cn2c3c(c(=O)[nH]c2=O)CCCC3)c1)N1CCN(C(=O)c2ccco2)CC1 [Example 13, 1-(3-(4-(Furan-2-carbonyl)piperazine-1-carbonyl)benzyl)-5,6,7,8-tetrahydroquinazoline-2,4(1H,3H)-dione] | 374 | 33
9 | O=C(c1cccc(Cn2c3c(c(=O)[nH]c2=O)CCCC3)c1)N1CCN(C(=O)C2CCC2)CC1 [Example 14, 1-(3-(4-(Cyclobutylcarbonyl)piperazine-1-carbonyl)benzyl)-5,6,7,8-tetrahydroquinazoline-2,4(1H,3H)-dione] | 35 | 22
10 | O=C(c1cccc(Cn2c3c(c(=O)[nH]c2=O)CCCC3)c1)N1CCN(c2cnccn2)CC1 [Example 16, 1-(3-(4-(Pyrazin-2-yl)piperazine-1-carbonyl)benzyl)-5,6,7,8-tetrahydroquinazoline-2,4(1H,3H)-dione] | 43 | 13
11 | O=C(c1cc(Cn2c3c(c(=O)[nH]c2=O)CCCC3)ccc1F)N1CCN(C(=O)C2CC2)CC1 [Example 19, 1-(4-Fluoro-3-(4-(cyclopropylcarbonyl)piperazine-1-carbonyl)benzyl)-5,6,7,8-tetrahydroquinazoline-2,4(1H,3H)-dione] | 324 | 25
12 | CCS(=O)(=O)N1CCN(C(=O)c2cc(Cn3c4c(c(=O)[nH]c3=O)CCCC4)ccc2F)CC1 [Example 29, 1-(4-Fluoro-3-(4-ethylsulfonylpiperazine-1-carbonyl)benzyl)-5,6,7,8-tetrahydroquinazoline-2,4(1H,3H)-dione] | 138 | 18

From patent US20140275711A1, “1-(Arylmethyl)-5,6,7,8-tetrahydroquinazolline-2,4-diones and Analogs and the Use Thereof” (Impact Therapeutics, Inc., priority 2011, published 2014)
